# Data as given in patent US8476280B2, “Compositions and methods for combating lower urinary tract dysfunctions with delta opioid receptor agonists” (Versi Group, LLC, priority 2002, dated 2013).
# Legend:
# [1] = test system: healthy conscious rats; assay: Cystometric parameters in healthy conscious rats; type: in vivo, rat; details: for inhibition of bladder contractions (micturition pressure): intravenous administration, recorded 90 minutes after injection; for frequency of bladder contractions / pressure of bladder contractions: oral administration via stomach cannula, recorded 120 minutes after administration
# Method: Male rats weighing 200 to 250 grams were used. The rats were housed with free access to food and maintained on forced 12 hours alternating light-dark cycle at 22-24° C. for at least one week, except during performance of the experiment.
# The rats were anesthetized with pentobarbital, 65 mg/kg i.p. and placed in a supine position. An approximately 10 mm long midline incision was made in the shaved and cleaned abdominal wall. The urinary bladder was freed from adhering tissues, emptied and then cannulated, via an incision at the dome with a polyethylene cannula (PE50), which was permanently sutured in place. The cannula was exteriorized through a subcutaneous tunnel in the retroscapular area, where it was connected with a plastic adapter to avoid the risk of removal by the rats. For intravenous (i.v.) injection of test compounds, a polyethylene tubing (PE50) was inserted into the jugular vein and exteriorized in the retroscapular area. Since cystometrographic parameters have been reported to be influenced by the time elapsed after catheter implantation, the rats were treated with 1 mg/kg Penicilline G, intramuscularly, to prevent infection and allowed to rest 3 days after implantation and before testing commenced.
# For oral administration of test compounds, a polyethylene tube (PE50) was inserted into the stomach and was permanently sutured in place. The cannula was exteriorized through a subcutaneous tunnel in the retroscapular area, where it was connected with a plastic adapter to avoid the risk of removal by the rats.
# On the day of the experiments, the rats were placed in Bollman's cages, the free tip of the bladder catheter was connected through a T-shaped tube to a pressure transducer (Grass PT300 or Gould P23) to record bladder pressure and to a peristaltic pump for continuous infusion, at a constant rate of […] of saline solution into the urinary bladder. The intraluminal pressure signal during infusion was continuously recorded. Two urodynamic parameters were evaluated: micturition pressure and interval between micturition that equates to volume capacity before detrusor contraction occurs (decrease in frequency of contractions). Micturition pressure is defined as the maximal intravesical pressure induced by the contraction of detrusor during micturition. Data was calculated as the mean of testing results for several animals at each dosage. The drug effects were expressed as a percent relative to activity of the control data, which was set at 100%.
# Infusion was commenced with saline solution to determine activity in rats without test compounds to be used as the control baseline. Saline solution infusion was interrupted and the test compounds were administered. At time points 90 minutes after intravenous administration and 120 minutes after oral drug administration, cystometrograms were recorded in each animal and the mean values of the recorded cystometrographic parameters were calculated.
# [2] = test system: rats experiencing partial urethral restriction; assay: Cystometric parameters in rats experiencing partial urethral restriction; type: in vivo, rat; details: oral administration of 10 mg/kg
# Description: Male rats weighing 200 to 250 grams were used. The method to produce bladder outlet obstructions thereby producing partial urethral restriction is essentially that reported by Malmgren et al, J. Urol. 137:1291-1294, the disclosure of which is hereby incorporated herein by reference. Following anesthetic induction, the ventral abdominal wall and perineum were shaved and cleaned with betadine. A lower midline abdominal incision was made, and the bladder and proximal urethra were identified. A plastic rod with a ˜1 mm outer diameter was placed parallel to the urethra, and a silk ligature was tied around the urethra and the plastic rod. […]
# On the day of testing, the bladder catheter was connected through a T-shaped tube to a pressure transducer (Grass PT300 or Gould P23) to record bladder pressure isovolumetrically and to a peristaltic pump for continuous infusion, at a constant rate of 0.1 ml/min, of saline solution into the urinary bladder. The pressure signal during infusion was continuously recorded.
# Two urodynamic parameters were evaluated in the test rats: micturition pressure and interval between voiding that equates to volume capacity before detrusor contraction occurs (decrease in frequency of contractions). Changes in bladder activity were recorded and expressed as pressure or volume over time.
SMILES,inhibition of bladder contractions (micturition pressure) [1],frequency of bladder contractions [1],pressure of bladder contractions [1],frequency and intensity of pressure contractions ([2]; three test rats),volume capacity (bladder capacity before voiding) ([2]; trace 1d)
"CCN(CC)C(=O)c1ccc(C(c2ccccc2)N2C[C@@H](C)N(Cc3cccc(F)c3)C[C@@H]2C)cc1 (stereo partly drawn) [Compound 1, 4-((alpha-S)-alpha-((2S,5R)-2,5-Dimethyl-4-(3-fluorobenzyl)-1-piperazinyl)benzyl)-N,N-diethylbenzamide]",effected an inhibition of bladder contractions,a decrease in the frequency of bladder contractions,a decrease in the pressure of these contractions,marked improvement in both frequency and intensity of pressure contractions (reduced),volume capacity increased
"CCN(CC)C(=O)c1ccc(C(c2ccccc2)N2C[C@@H](C)N(Cc3ccc(F)cc3)C[C@@H]2C)cc1 (stereo partly drawn) [Compound 2, 4-((alpha-S)-alpha-((2S,5R)-2,5-Dimethyl-4-(4-fluorobenzyl)-1-piperazinyl)benzyl)-N,N-diethylbenzamide]",effected an inhibition of bladder contractions,–,–,–,–
"C=CCN1C[C@H](C)N(C(c2ccc(C(=O)N(CC)CC)cc2)c2cccc(OCC(=O)O)c2)C[C@H]1C (stereo partly drawn) [Compound 3, 3-((alpha-R)-alpha-((2S,5R)-4-allyl-2,5-dimethyl-1-piperazinyl)-4-(diethylaminocarbonyl)benzyl)phenoxyacetic acid]",effected an inhibition of bladder contractions,–,–,–,–
"C=CCN1C[C@H](C)N(C(c2ccccc2)c2cccc(C(=O)N(C)c3cccc(F)c3)c2)C[C@H]1C (stereo partly drawn) [Compound 4, 3-((alpha-S)-alpha-((2S,5R)-4-Allyl-2,5-dimethyl-1-piperazinyl)benzyl)-N-(3-fluorophenyl)-N-methylbenzamide]",effected an inhibition of bladder contractions,–,–,–,–
"Cc1ccccc1[C@H](c1cccc(O)c1)N1C[C@@H](C)NC[C@@H]1C [Compound 10, 3-((S)-((2S,5R)-2,5-Dimethyl-1-piperazinyl)(2-methylphenyl)methyl)phenol]",effected an inhibition of bladder contractions,–,–,–,–
"C[C@@H]1CN(Cc2ccc(C(=O)O)cc2)[C@@H](C)CN1[C@H](c1ccc(S(=O)(=O)N(C)C)cc1)c1cccc(O)c1 [Compound 11, 4-{4-[(R)-(4-dimethylsulfamoyl-phenyl)-(3-hydroxyphenyl)methyl]-(2S,5R)-dimethylpiperazin-1-ylmethyl}benzoic acid]",–,a decrease in the frequency of bladder contractions,a decrease in the pressure of these contractions,–,–
